From patent US12077777B2, “Precursory regulatory cytotrophoblast cells and uses thereof” (Accelerated BioSciences Corp., priority 2019, dated 2024)
Values belong to the compound of their own block, whether it stands above or below them.

Columns and labels:
PI3K/AKT signaling = assay: Gβ/PI3K/AKT/GSK3α/β pathway by blotting analysis in hTS cells; format: cell-based, human
Method: (§1) In cell culture, hTS cells were treated with bFGF and harvested at time as indicated and put into RIPA lysis solution (MILLIPORE®) supplemented with protease (Thermo Scientific) and phosphatase inhibitor (Cell Signaling Technology). After electrophoresis of 30 μg lysates on polyacrylamide gels, electroblotting onto PDVF membranes (MILLIPORE®) was performed. By blocking of 5% non-fat dry milk in PBS at room temperature (I hr), target proteins were incubated with primary antibodies. All membranes were incubated with chemiluminescent (MILLIPORE®) and imaging was captured by the CHEMIDOC® XRS system (BIO-RAD®). Antibodies used were listed in Key Resource Table. Data were analyzed by AlphaEaseFC (version 4.0.0).

FGFR1 = molecular target: T1, FGFR1 (Homo sapiens, UniProt P11362); assay: bFGF activation of FGFR1 and downstream PI3K signal, Western blot assay; format: cell-based; settings: bFGF 10 ng/ml
T1 construct: endogenous in cells; host or cells: human trophoblast stem (hTS) cells
T1 sequence (P11362 22-822): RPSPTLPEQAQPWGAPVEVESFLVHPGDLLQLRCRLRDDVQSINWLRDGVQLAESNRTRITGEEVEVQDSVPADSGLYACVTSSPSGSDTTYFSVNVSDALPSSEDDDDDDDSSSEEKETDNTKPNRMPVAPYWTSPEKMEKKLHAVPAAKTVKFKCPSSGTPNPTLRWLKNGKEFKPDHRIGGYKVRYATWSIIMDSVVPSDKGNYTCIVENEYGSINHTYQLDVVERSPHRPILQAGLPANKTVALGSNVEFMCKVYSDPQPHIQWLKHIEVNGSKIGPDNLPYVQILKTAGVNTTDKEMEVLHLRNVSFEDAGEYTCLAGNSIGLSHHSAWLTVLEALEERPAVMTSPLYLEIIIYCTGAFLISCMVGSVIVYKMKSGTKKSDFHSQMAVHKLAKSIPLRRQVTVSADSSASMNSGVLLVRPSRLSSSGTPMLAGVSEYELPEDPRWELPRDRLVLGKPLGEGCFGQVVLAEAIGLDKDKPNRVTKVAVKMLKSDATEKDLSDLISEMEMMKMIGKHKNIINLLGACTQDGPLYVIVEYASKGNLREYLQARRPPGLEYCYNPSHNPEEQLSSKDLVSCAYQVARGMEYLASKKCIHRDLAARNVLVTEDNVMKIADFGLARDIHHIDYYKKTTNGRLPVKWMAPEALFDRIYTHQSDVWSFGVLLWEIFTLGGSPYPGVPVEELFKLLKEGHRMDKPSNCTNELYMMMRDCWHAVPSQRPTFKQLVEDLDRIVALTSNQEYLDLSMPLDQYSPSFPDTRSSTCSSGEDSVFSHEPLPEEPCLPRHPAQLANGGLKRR
Method: as §1

CD4 = assay: IL-8 generated CD4(+) prCTBs, Western blot assay; format: cell-based, human; settings: IL-8 30 ng/ml
Method: as §1, with “After” for “In cell culture, hTS cells were treated with bFGF and harvested at time as indicated and put into RIPA lysis solution (MILLIPORE®) supplemented with protease (Thermo Scientific) and phosphatase inhibitor (Cell Signaling Technology). After”

CD56 = assay: IL-8 induced CD56 via CXCR2/STAT3 signaling, Western blot assay; format: cell-based, human; settings: IL-8 30 ng/ml
Method: as §1, with “After” for “In cell culture, hTS cells were treated with bFGF and harvested at time as indicated and put into RIPA lysis solution (MILLIPORE®) supplemented with protease (Thermo Scientific) and phosphatase inhibitor (Cell Signaling Technology). After”

Foxp3 = assay: IL-8 induced Foxp3 via CXCR2/STAT3 signaling, Western blot; format: cell-based, human; settings: IL-8 30 ng/ml; for IL-8-induced Foxp3 in presence of inhibitor: n=3 cell lines
Method: as §1, with “After” for “In cell culture, hTS cells were treated with bFGF and harvested at time as indicated and put into RIPA lysis solution (MILLIPORE®) supplemented with protease (Thermo Scientific) and phosphatase inhibitor (Cell Signaling Technology). After”

hTS cells = assay: Insulin secretion by RIA in secretomic analysis; format: cell-based, human; settings: hTS cells (1×10^6 cells), glucose 20 mM, gliclazide 10 μM, nifedipine 10 μM, n=3
Method: The hTS cell culture media (10 ml) were harvested at 80-90% confluence followed by centrifugation (3,000 rpm, 30 min, 4° C.). The supernatants were further concentrated to 1 ml by using 3 kDa VIVASPIN® concentrator (Sigma). The concentrated supernatant was further detected for TGF-β1, HLA-G, and PAI-1 by immunoblotting assay. IL-10 level was measured by OPTEIA® ELISA assay kit following the supplier's instructions (BD Pharmingen, San Diego). The range of detectable IL-10 concentration was between 2 and 2,000 pg/ml. An aliquot of 100 μl sample was measured in triplicate. Total protein of supernatant was measured by using Pierce BCA protein assay kit (THERMO […]®). […] Media were collected at different time (5, 10, 20, 30, 60 and 120 min), freeze dried by lyophilizer (VIRTIS®; Warminster), and rehydrated with sterile water (400 μl) for radioimmunoassay (RIA). C-peptide and insulin levels were determined by C-PEP II-RIA-CT (DIAsource ImmunoAssays S. A.) and Coat-A-Count insulin (Siemens Healthcare Diagnostics), respectively, in 5 assays.

hTSCs [1] = assay: Transwell invasion and migration assay, hTSCs; format: cell-based, human; settings: dose- and time-dependent; 4×10^3 cells/ml; n=3
prCTBs = assay: Transwell invasion and migration assay, prCTBs; format: cell-based, human; settings: dose- and time-dependent; 4×10^3 cells/ml; n=3
Method: […] To do this, add extracellular matrix (ECM) materials on top of the transwell membrane and then add cells on top of the ECM. For example, […]® is thawed and liquefied on ice, and then 30-50 μl of […]® is added to a 24-well transwell insert and solidified in a 37 C incubator for 15-30 minutes to form a thin gel layer. Cell solution is added on top of the […]® coating to simulate invasion through the extracellular matrix. The transwell cell migration assay measures the chemotactic capability of cells toward a chemo-attractant. The transwell cell invasion assay, however, measures both cell chemotaxis and the invasion of cells through extracellular matrix, a process that is commonly found in cancer metastasis or embryonic development. Using a pipette, very carefully add 600 μl of the desired chemo-attractant into the bottom of the lower chamber in a 24-well plate. Add the chemo-attractant without moving the transwell insert and avoid generating bubbles. Make sure the chemo-attractant liquid in the bottom well makes contact with the membrane in the upper well to form a chemotactic gradient. Incubation time is dependent on cell type and the chemo-attractant being used. Note: Further tests may be needed to determine the incubation period. […] The number of migrated cells can be counted by using hemocytometer or flow cytometer. […]

hTSCs [2] = assay: RT-qPCR analysis of IL-6 / IL-8 treated hTSCs; format: cell-based, human; settings: n=4; for CREB1 mRNA: IL-6 10 ng/ml or IL-8 30 ng/ml
Method: RNA was isolated from hTS cells in triplicate or quintuple samples using TRIZOL® reagent (INVITROGEN®) with DNAase I on-column digestion (Qiagen) according to manufacturer's protocol. Total RNA (500 ng) was used for reverse transcription with […] cDNA synthesis kit (BIO-RAD®). PCR carried out in duplicate using 1/40th of the cDNA per reaction and 400 nM forward and reverse primers. For miRNA stem-loop qPCR, we used single tube TAQMAN® miRNA assays as manufacturer's instruction (Applied Biosystems). All RT reactions, including no-template controls and RT minus controls, were carried out in a GENEAMP® PCR 9700 Thermocycler (Applied Biosystems). Comparative real-time PCR was performed in triplicate or quintuple, including no-template controls, using specific primers for miR-124 or RNU6B (Applied Biosystems). U6 snRNA (RNU6B; Applied Biosystems) served as an endogenous control. Relative expression was calculated using SDS2.2.2 software (Applied Biosystems) was used for comparative ΔCt analysis.

β-hCG = assay: IL-6 induced β-hCG, Western blot assay; format: cell-based, human; settings: IL-6 10 ng/ml, via GnRHR and IL-6R
Method: as §1, with “After” for “In cell culture, hTS cells were treated with bFGF and harvested at time as indicated and put into RIPA lysis solution (MILLIPORE®) supplemented with protease (Thermo Scientific) and phosphatase inhibitor (Cell Signaling Technology). After”

IL-6 and IL-8 = assay: bFGF induction of IL-6 and IL-8; format: cell-based, human; settings: bFGF 10 ng/ml; time-dependent; n=3 cell lines
Method: To explore how prCTBs produce cytokines IL-6 and IL-8, hTSCs were incubated with bFGF for 1-day mimicking the transient stay in the fallopian tube. Mechanistically, bFGF activated its receptor FGFR1 at cell membrane to induce PI3K/phosphorylated (p)AKT signaling. In turn, pAKT interacted and phosphorylated downstream pCREB1 (cAMP responsive element binding protein 1) to activate pCREB1 signaling. These molecular processes were verified by using FGFR 1 inhibitor PD166866, and specific shRNAs for PI3K and pAKT (FIGS. 7G-7J). In the nucleus, CREB1 targeted the genes to produce IL-6 in a time-dependent manner (FIG. 7K, left panel) and IL-8 (FIG. 7K, right panel) in a dose-dependent manner, confirmed by ELISA assay (FIG. 7C). These molecular processes occurred co-incidentally with EMT in time and space.

[3] = test system: STAT3, c-JUN, Fas ligand (FasL), Fas; assay: STAT3, c-JUN, FasL and Fas by immunoblotting assay; format: cell-based, human; settings: bFGF 10 ng/ml
Method: as §1

hTSCs [4] = assay: bFGF-induced epithelial-mesenchymal transition markers, Western blot assay; format: cell-based, human; settings: bFGF 10 ng/ml
Method: as §1

Compound: NC1(c2ccc(-c3nc4ccn5c(=O)[nH]nc5c4cc3-c3ccccc3)cc2)CCC1 [MK2206]
- Gβ-induced phosphorylation of AKT (ser473) and GSK3α/β (ser21/9) in presence of inhibitor (PI3K/AKT signaling): inhibited

- bFGF activation of FGFR1 and PI3K signal in presence of inhibitor (FGFR1): inhibited
Compound: COc1cc(OC)cc(-c2cc3cnc(N)nc3nc2NC(=O)NC(C)(C)C)c1 [PD166866, reference compound]

Compound: Cn1cc(C2=C(c3ccc(Cl)cc3Cl)C(=O)NC2=O)c2ccccc21 [SB216763]
- pMAFA expression in presence of inhibitor (PI3K/AKT signaling): inhibited

Compound: O=C(Nc1ccc([N+](=O)[O-])cc1O)Nc1ccccc1Br [SB225002]
- IL-8-induced CD4 in presence of inhibitor (CD4): inhibited
- IL-8-induced CD56 in presence of inhibitor (CD56): inhibited
- IL-8-induced Foxp3 in presence of inhibitor (Foxp3): inhibited

Compound: O=[N+]([O-])c1ccc2c(c1)S(=O)(=O)C=C2 [Stattic]
- IL-8-induced CD4 in presence of inhibitor (CD4): inhibited
- IL-8-induced CD56 in presence of inhibitor (CD56): inhibited
- IL-8-induced Foxp3 in presence of inhibitor (Foxp3): inhibited

Compound: Cc1ccc(S(=O)(=O)NC(=O)NN2CC3CCCC3C2)cc1 (stereo not shown) [gliclazide]
- insulin secretion (hTS cells): promoted insulin secretion

Compound: CXCL2: chemokine (C-X-C motif) ligand 2
- movement (invasion and migration) of hTSCs (hTSCs [1]): significantly induced movement
- movement (invasion and migration) of prCTBs (prCTBs): significantly induced movement

Compound: IL-6: interleukin 6
- CREB1 mRNA (hTSCs [2]; hTSCs): upregulated
- IL-6R mRNA (hTSCs [2]; IL-6 10 ng/ml, hTSCs): upregulated
- β-hCG mRNA (hTSCs [2]; IL-6 10 ng/ml, hTSCs): upregulated
- β-hCG induction (β-hCG): induced β-hCG

- conventional receptor IL-8R mRNA (hTSCs [2]; IL-8 30 ng/ml): not
Compound: IL-8: interleukin 8
- CREB1 mRNA (hTSCs [2]; hTSCs): upregulates
- CD56 mRNA (hTSCs [2]; IL-8 30 ng/ml): upregulates
- generation of CD4(+) prCTBs (CD4): generated CD4(+) prCTBs
- CD56 induction (CD56): induced CD56
- Foxp3 induction (Foxp3): induced Foxp3

Compound: MCP-1: monocyte chemoattractant protein-1
- movement (invasion and migration) of hTSCs (hTSCs [1]): significantly induced movement
- movement (invasion and migration) of prCTBs (prCTBs): significantly induced movement

Compound: bFGF: basic fibroblast growth factor
- IL-6 production (IL-6 and IL-8): induced
- IL-8 production (IL-6 and IL-8): induced
- Fas level [3]: downregulation
- Fas ligand (FasL) level [3]: upregulation
- STAT3 level [3]: upregulation
- c-JUN level [3]: upregulation
- E-cadherin expression (hTSCs [4]): down-regulated
- TGF-β1 expression (hTSCs [4]): up-regulated
- vimentin expression (hTSCs [4]): up-regulated
- activation of FGFR1 and downstream PI3K signal (FGFR1): activated
